In ChEMBL document CHEMBL4393657, “Tetrazole hybrids and their antifungal activities” (2019) one finds MIC and ED50 data, which are given here for 26 molecules.

Format in all cases: functional
Experiment [1] relates to Candida albicans. As to the kind of experiment: Antifungal activity against Candida albicans assessed as reduction in fungal cell growth incubated for 48 hrs by broth microdilution susceptibility method.
Another experiment relates to Fusarium oxysporum. As to the kind of experiment: Antifungal activity against Fusarium oxysporum assessed as reduction in fungal cell growth incubated for 24 and 72 hrs by cup plate method.
Experiment [2] relates to Candida albicans. As to the kind of experiment: Antifungal activity against Candida albicans assessed as reduction in fungal cell growth incubated for 24 and 72 hrs by cup plate method.
A further experiment concerns Aspergillus flavus. As to the kind of experiment: Antifungal activity against Aspergillus flavus assessed as reduction in fungal cell growth incubated for 24 and 72 hrs by cup plate method.
For experiment [3], the system named is Candida albicans. As to the kind of experiment: In vivo antifungal activity against Candida albicans TA infected in CDF-1 mouse dosed orally assessed as survival of mouse. The conditions noted are these: po.
A further experiment relates to Aspergillus niger. As to the kind of experiment: Antifungal activity against Aspergillus niger assessed as reduction in fungal cell growth incubated for 72 hrs by broth microdilution method.
A further experiment deals with Cryptococcus neoformans. As to the kind of experiment: Antifungal activity against Cryptococcus neoformans LA314 assessed as reduction in fungal cell growth incubated for 48 hrs by broth microdilution method. The conditions noted are these: LA314, 48 h.
For the next experiment, the system named is Pichia kudriavzevii. As to the kind of experiment: Antifungal activity against Candida krusei assessed as reduction in fungal cell growth incubated for 48 hrs by broth microdilution method.
Another experiment concerns Candida tropicalis. As to the kind of experiment: Antifungal activity against Candida tropicalis assessed as reduction in fungal cell growth incubated for 48 hrs by broth microdilution method.
The test system of another experiment is Candida parapsilosis. As to the kind of experiment: Antifungal activity against Candida parapsilosis ATCC 22019 assessed as reduction in fungal cell growth incubated for 48 hrs by broth microdilution method. The conditions noted are these: Lodderomyces parapsilosis, ATCC 22019, 48 h.
Experiment [4] deals with Candida albicans. As to the kind of experiment: Antifungal activity against Candida albicans assessed as reduction in fungal cell growth incubated for 48 hrs by broth microdilution method.
The test system of a further experiment is Nakaseomyces glabratus. As to the kind of experiment: Antifungal activity against Candida glabrata assessed as reduction in fungal cell growth incubated for 48 hrs by broth microdilution method.

Values after ≈ are worked out from the molar mass of the structure shown. Where only a bound is given, the exact number is not on record here.

On to `Cc1ccc(N2C(=O)/C(=C\c3ccccc3)C(=O)N(/N=C/c3cc4ccccc4n4nnnc34)C2=S)cc1`, for which, in the experiment on Candida albicans [1], the MIC is no less than 100 µg/mL.
For the molecule `Cc1cccc2c1cc(C1CC(c3cc(Br)ccc3O)=NN1)c1nnnn12` (stereo not drawn), the MIC in the experiment on Fusarium oxysporum, in the experiment on Candida albicans [2] and in the experiment with Aspergillus flavus was 25 to 100 µg/mL (≈ 59.1 to 236 µM) each time.
As for `Cc1ccc2c(c1)cc(/C=C/C(=O)c1cc(Br)ccc1O)c1nnnn12`, the MIC in the experiment with Fusarium oxysporum, with Candida albicans [2] and in the experiment on Aspergillus flavus was 25 to 100 µg/mL (≈ 61.1 to 244 µM) throughout.
For `Cc1cccc2c1cc(/C=C/C(=O)c1cc(Br)ccc1O)c1nnnn12`, the MIC in the experiment on Fusarium oxysporum, with Candida albicans [2] and in the experiment with Aspergillus flavus was 25 to 100 µg/mL (≈ 61.1 to 244 µM) in each case.
Turning to `CCOC(=O)C(C#N)C(c1cc2ccc(OC)cc2n2nnnc12)P(=O)(OCC)OCC` (stereo not drawn), the MIC in the experiment with Fusarium oxysporum, in the experiment on Candida albicans [2] and in the experiment on Aspergillus flavus was 10 to 25 µg/mL (≈ 21.7 to 54.2 µM) in each case.
On to `COc1cccc2c1cc(C1CC(c3cc(Br)ccc3O)=NN1)c1nnnn12` (stereo not drawn), for which the MIC with Fusarium oxysporum, with Candida albicans [2] and in the experiment with Aspergillus flavus was 25 to 100 µg/mL (≈ 56.9 to 228 µM) each time.
For `COc1ccc2cc(C3CC(c4cc(Br)ccc4O)=NN3)c3nnnn3c2c1` (stereo not drawn), the MIC with Fusarium oxysporum, in the experiment with Candida albicans [2] and with Aspergillus flavus was 25 to 100 µg/mL (≈ 56.9 to 228 µM) throughout.
For `O=C1CC(=O)N(c2ccc(Cl)cc2)C(=S)N1/N=C/c1cc2ccccc2n2nnnc12`, the MIC with Candida albicans [1] was no less than 100 µg/mL.
As for `C[C@@H](n1nnn(-c2ccc(OCC(F)(F)F)cc2)c1=O)[C@](O)(Cn1cncn1)c1ccccc1`, the ED50 in the experiment on Candida albicans [3] was 0.71 to 2 mg/kg.
Consider `COc1ccc2c(c1)cc(C1CC(c3cc(Br)ccc3O)=NN1)c1nnnn12` (stereo not drawn), for which the MIC with Fusarium oxysporum, with Candida albicans [2] and with Aspergillus flavus was 25 to 100 µg/mL (≈ 56.9 to 228 µM) each time.
Regarding `Oc1ccc(Br)cc1C1=NNC(c2cc3ccccc3n3nnnc23)C1` (stereo not drawn), the MIC in the experiment on Fusarium oxysporum, in the experiment with Candida albicans [2] and in the experiment on Aspergillus flavus was 25 to 100 µg/mL (≈ 61.1 to 244 µM) each time.
For `O=C1/C(=C/c2ccccc2)C(=O)N(c2ccc(Cl)cc2)C(=S)N1/N=C/c1cc2ccccc2n2nnnc12`, the MIC in the experiment with Candida albicans [1] was no less than 100 µg/mL.
The same measure, in the same setting: the result for `Cc1ccc(N2C(=O)CC(=O)N(/N=C/c3cc4ccccc4n4nnnc34)C2=S)cc1` reads no less than 100 µg/mL.
As to `Cc1ccc2c(c1)cc(C1CC(c3cc(Br)ccc3O)=NN1)c1nnnn12` (stereo not drawn), the MIC in the experiment on Fusarium oxysporum, with Candida albicans [2] and with Aspergillus flavus was 25 to 100 µg/mL (≈ 59.1 to 236 µM) each time.
Take `C[C@@H](n1nnn(-c2ccc(OC(F)(F)C(F)F)cc2)c1=O)[C@](O)(Cn1cncn1)c1ccccc1`: the ED50 with Candida albicans [3] was 0.71 to 2 mg/kg.
With `C[C@@H](n1nnn(-c2ccc(OCC(F)(F)C(F)F)cc2)c1=O)[C@](O)(Cn1cncn1)c1ccccc1`, the ED50 in the experiment on Candida albicans [3] lay in the range of 0.71 to 2 mg/kg.
Take `O=C1CC(=O)N(c2ccccc2)C(=S)N1/N=C/c1cc2ccccc2n2nnnc12`: the MIC with Candida albicans [1] is no less than 100 µg/mL.
Take `Cc1ccc2cc(C3CC(c4cc(Br)ccc4O)=NN3)c3nnnn3c2c1` (stereo not drawn): the minimum inhibitory concentration (MIC) in the experiment with Fusarium oxysporum, in the experiment on Candida albicans [2] and in the experiment on Aspergillus flavus was 25 to 100 µg/mL (≈ 59.1 to 236 µM) throughout.
Take `C[C@@H](n1nnn(-c2ccc(C(F)(F)F)cc2)c1=O)[C@](O)(Cn1cncn1)c1ccccc1`: the ED50 in the experiment with Candida albicans [3] was in the range of 0.71 to 2 mg/kg.
Regarding `C[C@@H](n1nnn(-c2ccc(OCC(F)(F)C(F)(F)F)cc2)c1=O)[C@](O)(Cn1cncn1)c1ccccc1`, the ED50 with Candida albicans [3] lay within 0.71 to 2 mg/kg.
With `CCOC(=O)C(C#N)C(c1cc2c(OC)cccc2n2nnnc12)P(=O)(OCC)OCC` (stereo not drawn), the MIC with Fusarium oxysporum is 10 to 25 µg/mL (≈ 21.7 to 54.2 µM); with Candida albicans [2], 10 µg/mL (≈ 21.7 µM); in the experiment with Aspergillus flavus, 10 µg/mL (≈ 21.7 µM).
Consider `C[C@H](n1nnc(CCN2CCN(c3ccccn3)CC2)n1)[C@](O)(Cn1cncn1)c1ccc(F)cc1F`, for which the minimal inhibitory concentration (MIC) in the experiment on Aspergillus niger, in the experiment on Cryptococcus neoformans, in the experiment on Pichia kudriavzevii, in the experiment with Candida tropicalis, in the experiment with Candida parapsilosis and in the experiment with Candida albicans [4] was 0.25 to 16 µg/mL (≈ 0.49 to 31.3 µM) in each case. The MIC in the experiment with Nakaseomyces glabratus lay in the range of 0.25 to 16 µg/mL (≈ 0.49 to 31.3 µM).
For the molecule `CC(n1nnnc1CCN1CCN(c2ccc(Cl)cc2)CC1)C(O)(Cn1cncn1)c1ccc(F)cc1F` (stereo not drawn), the MIC in the experiment on Aspergillus niger, in the experiment on Cryptococcus neoformans, in the experiment with Pichia kudriavzevii, in the experiment with Candida tropicalis, with Candida parapsilosis and in the experiment with Candida albicans [4] was 0.5 to 16 µg/mL (≈ 0.919 to 29.4 µM) throughout. The MIC in the experiment on Nakaseomyces glabratus was 0.5 to 16 µg/mL (≈ 0.919 to 29.4 µM).
Take `CC(n1nnc(CCN2CCN(Cc3ccccc3)CC2)n1)C(O)(Cn1cncn1)c1ccc(F)cc1F` (stereo not drawn): the MIC with Aspergillus niger, with Cryptococcus neoformans, in the experiment with Pichia kudriavzevii, with Candida tropicalis, in the experiment on Candida parapsilosis and with Candida albicans [4] was 1 to 16 µg/mL (≈ 1.91 to 30.6 µM) throughout. Further, the MIC with Nakaseomyces glabratus was 1 to 16 µg/mL (≈ 1.91 to 30.6 µM).
With `C[C@H](n1nnnc1CCN1CCN(c2ccccc2Cl)CC1)[C@](O)(Cn1cncn1)c1ccc(F)cc1F`, the MIC in the experiment with Aspergillus niger, in the experiment with Cryptococcus neoformans, in the experiment with Pichia kudriavzevii, with Candida tropicalis, in the experiment with Candida parapsilosis and in the experiment with Candida albicans [4] was 0.12 to 16 µg/mL (≈ 0.221 to 29.4 µM) in each case. Further, in the experiment with Nakaseomyces glabratus, the MIC lay within 0.12 to 16 µg/mL (≈ 0.221 to 29.4 µM).
On to `OC(Cn1cncn1)(Cn1nnc(CCN2CCN(Cc3ccccc3)CC2)n1)c1ccc(F)cc1F` (stereo not drawn), for which the MIC with Aspergillus niger, in the experiment with Cryptococcus neoformans, in the experiment with Pichia kudriavzevii, in the experiment on Candida tropicalis, in the experiment with Candida parapsilosis and in the experiment on Candida albicans [4] was 1 to 16 µg/mL (≈ 1.96 to 31.4 µM) in each case. The MIC in the experiment on Nakaseomyces glabratus is 1 to 16 µg/mL (≈ 1.96 to 31.4 µM).
